Reference: article PMC12751015, “Evaluation of Bifunctional, PSMA-Targeted Triazamacrocycle-Picolinates Compatible with the ^18F/^44Sc/^177Lu Isotope Triad” (Journal of Medicinal Chemistry, 2025)

How the values were obtained:
PSMA + tumor = conditions: 2 h p.i., clinically employed agents; ref not printed (Table S11); cited from earlier work
[1] = pH-dependent speciation of ScF complexes by 1H and 45Sc NMR (HypNMR2008 fit); type: physicochemical; conditions: Sc3+ complexes, determined by HypNMR2008
Excerpt: To establish optimal parameters for the formation of ScF ternary complexes, we determined the pH-dependent speciation of ScF complexes with H 3 mpatcn and H 2 mpatcn-am-Bz using ^1H and ^45Sc NMR spectroscopy in accordance with previous methods established for the formation of lanthanide-fluoride complexes (Supporting Information, Section S3). […] Above pH 10, the [Sc(L)-OH] species becomes most favorable, effectively outcompeting the F^– ligand at increasing concentration. Low pH conditions led to the presence of protonated species [Sc(mpatcn)-H]^+, which competes with inner sphere fluorination. […] For both ligands, no statistically significant differences for pH dependence were observed, with the % of [ScF(L)] species remaining constant between pH 3 and 8 (Table ).

| logßML [1] | logßMLF [1] | logßMLOH [1] | logßMLH [1] | Structure (SMILES) | tumor to blood ratio (PSMA + tumor) |
| --- | --- | --- | --- | --- | --- |
|  |  |  |  | O=C(O)CC[C@H](NC(=O)N[C@@H](CCCCNC(=O)c1ccc(F)nc1)C(=O)O)C(=O)O [Pylarify] | 1220 ± 431 |
| 23.2 | 27.8 | 13.7 |  | CN(Cc1ccccc1)C(=O)CN1CCN(CC(=O)O)CCN(Cc2cccc(C(=O)O)n2)CC1 [mpatcn-am-Bz] |  |
| 23 | 27.7 | 14.2 | 24.9 | O=C(O)CN1CCN(CC(=O)O)CCN(Cc2cccc(C(=O)O)n2)CC1 [mpatcn] |  |
